Entries after “also recorded” stand apart in the source; their conditions may differ. Read-outs that look alike come from different tables or passages of the source. Each block holds one compound with its values, some of them ahead of it.
Tests used:
[1] = tested on: Phospho-STAT5 (P-STAT5) levels in HEL cells (Jak2V617F); assay: Western blot of phospho-STAT5 in HEL cells; format: cell-based, human; conditions: for effect on phosphorylation of STAT5 (Western blot): 0.5, 1 or 5 μM, 3 hrs; for IC50 values, WB (P-STAT5) / IC50: mean ± SD
HEL cells [2] = assay: Cell proliferation assay; format: cell-based, human; conditions: for effect on proliferation of HEL cells: 0.3 or 1 μM; for IC50: read-out: IC50 values, Proliferation assay
[3] = tested on: P-STAT5 in UKE-1 cells (Jak2V617F); assay: Western blot of phospho-STAT5 in UKE-1 cells; format: cell-based; conditions: 2.5 μM, 3 hrs
[4] = tested on: P-STAT5 in BA/F3-EpoR-Jak2V617F cells; assay: Western blot of phospho-STAT5 in BA/F3-EpoR-Jak2V617F cells; format: cell-based, murine; conditions: 2.5 μM, 3 hrs
[5] = tested on: Jak2V617F phosphorylation (P-Jak2) in HEL cells; assay: Western blot of phospho-Jak2 in HEL cells; format: cell-based, human; conditions: 0.5, 1 or 5 μM, 3 hrs
[6] = tested on: Jak2V617F in γ2A-FRT-TI-Jak2V617F/STAT3-YFP cells; assay: STAT3-YFP translocation assay; format: cell-based; conditions: for IC50: read-out: IC50 values, STAT3-YFP translocation assay
HEL cells [7] = assay: Cell cycle analysis; format: cell-based, human; conditions: 500 nM CEP701, VX680, TG101209 or 100 nM AT9283
[8] = tested on: phosphorylation of histone H3 (target of Aurora kinase B) in HEL cells; assay: Quantitative Western blot of phospho-histone H3 in HEL cells; format: cell-based, human; conditions: HEL cells blocked with Nocodazole; 0.25, 0.5 or 1 μM; 3 hrs
HEL cells [9] = assay: Cell size determination; format: cell-based, human; conditions: 600 nM CEP701, TG101209, VX680 or 100 nM AT9283; 24, 48 or 72 hrs
[10] = tested on: CD34+ cells of Jak2V617F-positive MPN patients; assay: Colony forming cell; format: cell-based, human; conditions: single inhibitor; 12–16 days of culture
[11] = tested on: Jak2V617F in HEK-V617F-STAT-Rep. cells; assay: pSTAT-ZsGreen reporter gene assay; format: cell-based; conditions: for IC50: read-out: IC50 values, STAT-reporter gene assay
[12] = tested on: 2C4, HCT-116 and K-562 cells; assay: Nuclei size in cell lines not expressing Jak2V617F; format: cell-based; conditions: 500 nM; 48 hrs
[13] = tested on: phosphorylation of histone H3 in UKE-1 cells; assay: Quantitative Western blot of phospho-histone H3 in UKE-1 cells; format: cell-based; conditions: UKE-1 cells blocked with Nocodazole; 0.25, 0.5 or 1 μM; 3 hrs
[14] = tested on: phosphorylation of histone H3 in BA/F3-EpoR-Jak2V617F cells; assay: Quantitative Western blot of phospho-histone H3 in BA/F3-EpoR-Jak2V617F cells; format: cell-based, murine; conditions: BA/F3-EpoR-Jak2V617F cells blocked with Nocodazole; 0.25, 0.5 or 1 μM; 3 hrs
[15] = tested on: γ2A-FRT-TI-Jak2V617F/STAT3-YFP cells; assay: Nuclei size by confocal imaging and Cell Profiler; format: cell-based; conditions: 24 hrs; Cell Profiler
[16] = Homo sapiens, HEL, read-out: IC50 values, WB (P-STAT5), HEL cells
[17] = read-out: IC50 values, WB (P-STAT5), HEL cells
[18] = HEK-V617F-STAT-Rep. cells, 24 hrs, mean ± SD
[19] = γ2A-FRT-TI-Jak2V617F/STAT3-YFP cells, mean ± SD

IC50 values, WB (P-STAT5) ([1]; HEL cells): No inhibition
Structure (SMILES): N#C/C(=C/c1ccc(O)c(O)c1)C(=O)NCc1ccccc1 [AG490]
effect on phosphorylation of STAT5 (Western blot) ([1]; HEL cells): did not inhibit the phosphorylation of STAT5 | effect on proliferation of HEL cells (HEL cells [2]; 72 hrs): neither affected cell growth | effect on phosphorylation of STAT5 (Western blot) [3]: did not inhibit STAT5 phosphorylation | effect on phosphorylation of STAT5 (Western blot) [4]: did not inhibit STAT5 phosphorylation | effect on phosphorylation of Jak2 [5]: not observed

IC50 [6]: 74 ± 38 nM
Structure (SMILES): O=C(Nc1c[nH]nc1-c1nc2ccc(CN3CCOCC3)cc2[nH]1)NC1CC1 [AT9283]
effect on phosphorylation of STAT5 (Western blot) ([1]; HEL cells): strongly reduced phosphorylation of STAT5 | effect on phosphorylation of STAT5 (Western blot) [3]: efficiently decreased | effect on phosphorylation of STAT5 (Western blot) [4]: efficiently decreased | effect on phosphorylation of Jak2 [5]: increased phosphorylation of Jak2 | effect on cell cycle profile (HEL cells [7]): emergence of an 8n peak | effect on histone H3 phosphorylation [8]: Reduction in histone H3 phosphorylation | effect on HEL cell size (HEL cells [9]): increased in size

Structure (SMILES): CCN(CCCOc1ccc2c(Nc3cc(CC(=O)Nc4cccc(F)c4)n[nH]3)ncnc2c1)CCOP(=O)(O)O [AZD1152]
effect on erythroid and myeloid colony growth [10]: same behaviour

IC50 [1, 16]: ~100 nM | IC50 [1, 17]: 97 ± 39 nM | IC50 [6]: 45 ± 15 nM
Structure (SMILES): C[C@]12O[C@H](C[C@]1(O)CO)n1c3ccccc3c3c4c(c5c6ccccc6n2c5c31)CNC4=O [CEP701]
effect on phosphorylation of STAT5 (Western blot) ([1]; HEL cells): strongly reduced phosphorylation of STAT5 | IC50 ([11]; 24 h): 111 ± 22 nM | effect on proliferation of HEL cells (HEL cells [2]; 72 hrs): reduced proliferation of HEL cells very effectively | IC50 (HEL cells [2]; Homo sapiens, HEL, 72 h): 81 ± 20 nM | increase in nuclei size in cell lines not expressing Jak2V617F [12]: this effect was also clearly visible | effect on phosphorylation of STAT5 (Western blot) [3]: efficiently decreased | effect on phosphorylation of STAT5 (Western blot) [4]: efficiently decreased | effect on phosphorylation of Jak2 [5]: increased phosphorylation of Jak2 | effect on cell cycle profile (HEL cells [7]): emergence of an 8n peak | effect on histone H3 phosphorylation [8]: Reduction in histone H3 phosphorylation | effect on histone H3 phosphorylation [13]: decline of histone H3 phosphorylation | effect on histone H3 phosphorylation [14]: decline of histone H3 phosphorylation | effect on HEL cell size (HEL cells [9]): increased in size | effect on erythroid and myeloid colony growth [10]: erythroid and myeloid colonies were equally well suppressed

Structure (SMILES): CO[C@@H](C(=O)N1Cc2n[nH]c(NC(=O)c3ccc(N4CCN(C)CC4)cc3)c2C1)c1ccccc1 [Danusertib]
effect on erythroid and myeloid colony growth [10]: same behaviour

IC50 [1, 17]: 133 ± 62 nM | IC50 [6, 19]: 197 ± 73 nM
Structure (SMILES): CC(C)(C)c1nc2c3cc[nH]c(=O)c3c3cc(F)ccc3c2[nH]1 [JI1]
effect on phosphorylation of STAT5 (Western blot) ([1]; HEL cells): strongly reduced phosphorylation of STAT5 | IC50 [11, 18]: 291 ± 40 nM | effect on proliferation of HEL cells (HEL cells [2]; 72 hrs): reduced proliferation of HEL cells very effectively | IC50 (HEL cells [2]; HEL cells, 72 hrs, mean ± SD): 506 ± 18 nM | concentration at which nuclei size increases [15]: did not have this effect | effect on phosphorylation of STAT5 (Western blot) [3]: efficiently decreased | effect on phosphorylation of STAT5 (Western blot) [4]: efficiently decreased | effect on phosphorylation of Jak2 [5]: increased phosphorylation of Jak2

IC50 values, WB (P-STAT5) ([1]; HEL cells): No inhibition
Structure (SMILES): Nc1nc(Nc2ccc(S(N)(=O)=O)cc2)nn1C(=O)c1c(F)cccc1F [JNJ7706621]
effect on phosphorylation of STAT5 (Western blot) ([1]; HEL cells): did not inhibit the phosphorylation of STAT5 | effect on proliferation of HEL cells (HEL cells [2]; 72 hrs): neither affected cell growth | effect on phosphorylation of Jak2 [5]: not observed

Structure (SMILES): C/C(O)=C(\C#N)C(=O)Nc1cc(Br)ccc1Br [LFM-A13]
effect on phosphorylation of STAT5 (Western blot) ([1]; HEL cells): did not inhibit the phosphorylation of STAT5 | IC50 values, WB (P-STAT5) ([1]; HEL cells): No inhibition | effect on proliferation of HEL cells (HEL cells [2]; 72 hrs): neither affected cell growth | effect on phosphorylation of Jak2 [5]: not observed

Structure (SMILES): O=C(Nc1cccc(Cl)c1)Nc1ncc(CCNc2ncnc3ccsc23)s1 [SNS314]
effect on erythroid and myeloid colony growth [10]: same behaviour

IC50 values, WB (P-STAT5) ([1]; HEL cells): No inhibition
Structure (SMILES): CCN(CC)CCNC(=O)c1c(C)[nH]c(/C=C2\C(=O)Nc3ccc(F)cc32)c1C [Sunitinib]
effect on phosphorylation of STAT5 (Western blot) ([1]; HEL cells): did not inhibit the phosphorylation of STAT5 | effect on proliferation of HEL cells (HEL cells [2]; 72 hrs): moderate effect | effect on phosphorylation of STAT5 (Western blot) [3]: did not inhibit STAT5 phosphorylation | effect on phosphorylation of STAT5 (Western blot) [4]: did not inhibit STAT5 phosphorylation | effect on phosphorylation of Jak2 [5]: not observed

IC50 [1, 17]: 92 ± 18 nM | IC50 [6, 19]: 125 ± 45 nM
Structure (SMILES): Cc1cnc(Nc2ccc(N3CCN(C)CC3)cc2)nc1Nc1cccc(S(=O)(=O)NC(C)(C)C)c1 [TG101209]
effect on phosphorylation of STAT5 (Western blot) ([1]; HEL cells): strongly reduced phosphorylation of STAT5 | IC50 [11, 18]: 156 ± 10 nM | effect on proliferation of HEL cells (HEL cells [2]; 72 hrs): reduced proliferation of HEL cells very effectively | IC50 (HEL cells [2]; HEL cells, 72 hrs, mean ± SD): 243 ± 41 nM | concentration at which nuclei size increases [15]: did not show this effect; also recorded: did not have this effect | effect on phosphorylation of STAT5 (Western blot) [3]: efficiently decreased | effect on phosphorylation of STAT5 (Western blot) [4]: efficiently decreased | effect on phosphorylation of Jak2 [5]: increased phosphorylation of Jak2 | effect on cell cycle profile (HEL cells [7]): reduction in the G2/M peak intensity | effect on histone H3 phosphorylation [8]: only very little effect | effect on HEL cell size (HEL cells [9]): not observed

IC50 [1, 16]: ~600 nM | IC50 [1, 17]: 636 ± 203 nM | IC50 [6]: 385 ± 61 nM
Structure (SMILES): Cc1cnc(Nc2ccc(OCCN3CCCC3)cc2)nc1Nc1cccc(S(=O)(=O)NC(C)(C)C)c1 [TG101348]
effect on phosphorylation of STAT5 (Western blot) ([1]; HEL cells): showed the same effects but were less efficient | IC50 ([11]; 24 h): 850 ± 101 nM | effect on proliferation of HEL cells (HEL cells [2]; 72 hrs): showed the same effects but were less efficient | IC50 (HEL cells [2]; Homo sapiens, HEL, 72 h): 725 ± 85 nM | concentration at which nuclei size increases [15]: did not have this effect | effect on phosphorylation of STAT5 (Western blot) [3]: efficiently decreased | effect on phosphorylation of STAT5 (Western blot) [4]: efficiently decreased | effect on phosphorylation of Jak2 [5]: increased phosphorylation of Jak2

IC50 values, WB (P-STAT5) ([1]; HEL cells): No inhibition | IC50 values, STAT3-YFP translocation assay [6, 19]: No inhibition
Structure (SMILES): Cc1cc(Nc2cc(N3CCN(C)CC3)nc(Sc3ccc(NC(=O)C4CC4)cc3)n2)[nH]n1 [VX680]
effect on phosphorylation of STAT5 (Western blot) ([1]; HEL cells): did not inhibit the phosphorylation of STAT5 | IC50 values, STAT-reporter gene assay [11, 18]: No inhibition | effect on proliferation of HEL cells (HEL cells [2]; 72 hrs): very efficiently inhibited HEL cell growth | IC50 (HEL cells [2]; Homo sapiens, HEL, 72 h): 158 ± 26 nM | increase in nuclei size in cell lines not expressing Jak2V617F [12]: this effect was also clearly visible | effect on phosphorylation of STAT5 (Western blot) [3]: did not inhibit STAT5 phosphorylation | effect on phosphorylation of STAT5 (Western blot) [4]: did not inhibit STAT5 phosphorylation | effect on phosphorylation of Jak2 [5]: not observed | effect on cell cycle profile (HEL cells [7]): emergence of an 8n peak | effect on histone H3 phosphorylation [8]: Reduction in histone H3 phosphorylation | effect on histone H3 phosphorylation [13]: decline of histone H3 phosphorylation | effect on histone H3 phosphorylation [14]: decline of histone H3 phosphorylation | effect on HEL cell size (HEL cells [9]): increased in size | effect on erythroid and myeloid colony growth [10]: reduced the numbers of myeloid colonies very efficiently but had less effect on erythroid colonies

IC50 values, WB (P-STAT5) ([1]; HEL cells): No inhibition
Structure (SMILES): C[C@H](NC(=O)/C(C#N)=C/c1cccc(Br)n1)c1ccccc1 [WP1066]
effect on phosphorylation of STAT5 (Western blot) ([1]; HEL cells): did not inhibit the phosphorylation of STAT5 | IC50 values, STAT-reporter gene assay [11, 18]: No inhibition | effect on proliferation of HEL cells (HEL cells [2]; 72 hrs): moderate effect | effect on phosphorylation of STAT5 (Western blot) [3]: did not inhibit STAT5 phosphorylation | effect on phosphorylation of STAT5 (Western blot) [4]: did not inhibit STAT5 phosphorylation | effect on phosphorylation of Jak2 [5]: not observed

From paper PMC3822589 (Journal of Cellular and Molecular Medicine, 2013)
